Patent publication US20100120703A1, “COMPOSITIONS AND METHODS FOR TREATING CANCER” (priority 2007, published 2010)

What was measured:
[1] = tested on: HepG2 cells; test: Neutral red cell viability assay; format: cell-based; settings: Homo sapiens
Excerpt: The neutral red (NR) cytotoxicity assay is a chemosensitivity assay for measuring cell survival/viability, based on the ability of viable cells to incorporate and bind neutral red, a supravital dye. NR is a weak cationic dye that readily penetrates cell membranes by non-ionic diffusion, accumulating intracellularly in lysosomes, where it binds with anionic sites in the lysosomal matrix. Alterations of the cell surface or the sensitive lysosomal membrane lead to lysosomal fragility and other changes that gradually become irreversible. Such changes brought about by the action of xenobiotics result in a decreased uptake and binding of NR. It is thus possible to distinguish between viable, damaged, or dead cells. (Babich, H et al, 1990)
Three different cell lines HepG2, WRL-68 and Clone 9 cell lines were used in the experiment. HepG2 is a human hepatoblastoma cell line. It is a well known cell model in anti-HCC studies (Alshatwi A A, et al, 2006). WRL-68 is a human normal liver embryo cell line that has a morphologic structure similar to hepatocytes and hepatic primary cultures (Gutierrez-Ruiz, et al, 1994). This cell line was used as the control. Clone 9 is the rat Sprague Dawley (SD) liver normal cell line. In the in vivo studies, sinigrin (SIN) would be applied to the SD rat animal model. The employment of this cell line in the cell viability study was to test if SIN would be toxic in the rat animal model.
HepG2, WRL-68 and Clone 9 cells were grown in complete culture medium (RPMI or DMEM), trypsinized and washed. Ten thousand cells of each cell type were seeded in 96-well plates. After 24 hours of pre-incubation, cells were treated with different concentrations of SIN and incubated for 72 hours. After incubation, cells were harvested and washed twice with 1×PBS buffer. Fifty microliters of Neutral Red solution were added to each well. The whole plate was placed into an incubator at 37° C. with 5% CO2. After incubation for 1 hour, the plate was washed twice with 1×PBS buffer, and completely dried in a 60° C. oven overnight. […] The color was measured at OD540nm.

[2] = tested on: rats previously treated with dimethylhydrazine (DMH); settings: cited from earlier work
[3] = tested on: Sprague Dawley (SD) rats; test: DEN/CCl4-induced hepatoma in rats, promotion stage: liver observation and weight; format: in vivo, rat; settings: 15 mg/kg oral daily for 28 weeks
Protocol: Sprague Dawley (SD) rats were used as the animal model in the in vivo experiments. Male SD rats (80-90 g body weight) were obtained from Laboratory Animal Services Center of The Chinese University of Hong Kong. The rats were housed in the rodent animal room with a 12 hour light-dark cycle and constant temperature of 25° C. Four rats were housed in each case. Food and water were given ad libitum. All the animals were observed and weighed daily.
The experiments were to induce hepatomas in rats. SIN was administered to the rats of treatment group at different stages. Chemical carcinogens were employed in the design of experiment to be able to induce hepatoma within a short time (Ha W. S. et al., 2001). Diethylnitrosamine (DEN) has been frequently used by other scientists to induce hepatoma. DEN administration in combined with CCl4 method was employed in the experiment to induce hepatoma in rats according to the established protocol (Kovalszky, I. et al., 1992).
Experiments of the promotion stage were to study the effect of SIN at the promotion stage of cancer development. Fifteen rats were randomly divided into 3 groups, a negative control group (5 rats), a positive control group (5 rats) and an SIN-treatment group (5 rats). […]
During the experiment, the body weight of the rat was monitored daily. […]

[4] = HepG2, 72 h, read-out: viability of HepG2 cells

C=CC/C(=N/OS(=O)(=O)[O-])S[C@@H]1OC(CO)[C@@H](O)C(O)C1O.[K+] (stereo partly shown) [SIN, sinigrin]
viability at 25 µM [1, 4]: ~70% | viability at 1000 µM [1, 4]: ~35% | IC50 ([1]; HepG2, 72 hours, neutral red): < 250 µM | apoptosis in colonic tissue vs DMH only ([2]; DMH treated rats): higher level of apoptosis | aberrant crypt foci in colonic tissue ([2]; sinigrin administered after DMH): suppresses induction of aberrant crypt foci | percentage of liver weight and liver weight index vs negative group [3]: only slightly higher | visible tumors on liver (direct observation) [3]: no visible tumor
